From PubChem BioAssay AID220 (DTP/NCI, 2004) come the findings set out here.

Several values for one entry are separate records, joined by “and”; a condition that tells them apart may be missing. Identical values can stand only once. Records with an inconclusive call do not appear.

The experiment relates to CD8F1 mice, subcutaneous mammary adenocarcinoma, T/C%. Put plainly: NCI In Vivo Anticancer Drug Screen. Data for tumor model Mammary Adenocarcinoma CD8F1 (subcutaneous) in CD8F1. The conditions noted are these: higher = larger tumour. The procedure, abridged: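 Mice carrying transplanted tumors received test compound, and survival or tumor size was recorded. Each value is the treated-group measurement divided by the corresponding measurement in vehicle-dosed controls.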

[1] abbreviates: endpoint: median tumor weight (est.), dose: 2.0 mg/kg/injection, schedule: Q07DX005 (ip), vehicle: saline.
The mark [2] stands for this setting: endpoint: median tumor weight (est.), dose: 4.0 mg/kg/injection, schedule: Q07DX005 (ip), vehicle: saline.
Setting [3] is: endpoint: median tumor weight (est.), dose: 8.0 mg/kg/injection, schedule: Q07DX005 (ip), vehicle: saline.
The mark [4] stands for this setting: endpoint: median tumor weight change, dose: 62.5 mg/kg/injection, schedule: Q01DX001 (ip), vehicle: saline with Tween-80.
Setting [5] is: endpoint: median tumor weight change, dose: 125.0 mg/kg/injection, schedule: Q01DX001 (ip), vehicle: saline with Tween-80.
[6] abbreviates: endpoint: median tumor weight change, dose: 250.0 mg/kg/injection, schedule: Q01DX001 (ip), vehicle: saline with Tween-80.

Turning to `O=C1c2ccccc2C(=O)c2c(NCCNCCO)ccc(NCCNCCO)c21`, the T/C (endpoint: mean tumor weight, dose: 8.3 mg/kg/injection, schedule: Q07DX004 (ip), vehicle: Klucel (hydroxypropylcellulose) (HPC)) is 60 % of control; the T/C (endpoint: mean tumor weight, dose: 16.6 mg/kg/injection, schedule: Q07DX004 (ip), vehicle: Klucel (hydroxypropylcellulose) (HPC)) is 81 % of control; the T/C (endpoint: mean tumor weight, dose: 31.25 mg/kg/injection, schedule: Q07DX004 (ip), vehicle: Klucel (hydroxypropylcellulose) (HPC)) was 25 % of control; the T/C (endpoint: mean tumor weight, dose: 62.5 mg/kg/injection, schedule: Q07DX004 (ip), vehicle: Klucel (hydroxypropylcellulose) (HPC)) is 59 % of control; the T/C (endpoint: mean tumor weight, dose: 125.0 mg/kg/injection, schedule: Q07DX004 (ip), vehicle: Klucel (hydroxypropylcellulose) (HPC)) is 37 % of control; the T/C under setting [1] is 74 % of control. Further, the T/C reads like this: (endpoint: median tumor weight (est.), dose: 4.0 mg/kg/injection, schedule: Q04DX005 (ip), vehicle: water) 97 % of control; (endpoint: median tumor weight (est.), dose: 4.0 mg/kg/injection, schedule: Q07DX004 (ip), vehicle: water) 74 % of control; under setting [2], 92 % of control; (endpoint: median tumor weight (est.), dose: 4.0 mg/kg/injection, schedule: Q07DX005 (ip), vehicle: water) 93 % of control; (endpoint: median tumor weight (est.), dose: 8.0 mg/kg/injection, schedule: Q04DX005 (ip), vehicle: water) 62 % of control; (endpoint: median tumor weight (est.), dose: 8.0 mg/kg/injection, schedule: Q07DX004 (ip), vehicle: water) 69 % of control. Besides, the T/C is 92 % of control under setting [3]; 30 % of control (endpoint: median tumor weight (est.), dose: 15.63 mg/kg/injection, schedule: Q04DX005 (ip), vehicle: Klucel (hydroxypropylcellulose) (HPC)); 33 % of control (endpoint: median tumor weight (est.), dose: 15.63 mg/kg/injection, schedule: Q07DX004 (ip), vehicle: Klucel (hydroxypropylcellulose) (HPC)); 66 % of control (endpoint: median tumor weight (est.), dose: 16.0 mg/kg/injection, schedule: Q04DX005 (ip), vehicle: water); 72 % of control (endpoint: median tumor weight (est.), dose: 16.0 mg/kg/injection, schedule: Q07DX004 (ip), vehicle: water); 84 % of control (endpoint: median tumor weight (est.), dose: 16.0 mg/kg/injection, schedule: Q07DX005 (ip), vehicle: saline). Besides, the T/C reads like this: (endpoint: median tumor weight (est.), dose: 16.12 mg/kg/injection, schedule: Q04DX005 (ip), vehicle: Klucel (hydroxypropylcellulose) (HPC)) 9 % of control; (endpoint: median tumor weight (est.), dose: 16.12 mg/kg/injection, schedule: Q07DX004 (ip), vehicle: Klucel (hydroxypropylcellulose) (HPC)) 17 % of control; (endpoint: median tumor weight (est.), dose: 31.25 mg/kg/injection, schedule: Q04DX005 (ip), vehicle: Klucel (hydroxypropylcellulose) (HPC)) 11 % of control; (endpoint: median tumor weight (est.), dose: 32.0 mg/kg/injection, schedule: Q01DX001 (ip), vehicle: water) 63 % of control; (endpoint: median tumor weight (est.), dose: 32.0 mg/kg/injection, schedule: Q04DX005 (ip), vehicle: water) 18 % of control; (endpoint: median tumor weight (est.), dose: 32.0 mg/kg/injection, schedule: Q07DX004 (ip), vehicle: water) 44 % of control. Besides, the T/C (endpoint: median tumor weight (est.), dose: 32.0 mg/kg/injection, schedule: Q07DX005 (ip), vehicle: saline) was 56 % of control; the T/C (endpoint: median tumor weight (est.), dose: 62.5 mg/kg/injection, schedule: Q07DX005 (ip), vehicle: Klucel (hydroxypropylcellulose) (HPC)) was 10 % of control; the T/C (endpoint: median tumor weight (est.), dose: 64.0 mg/kg/injection, schedule: Q07DX004 (ip), vehicle: water) was 7 % of control; the T/C (endpoint: median tumor weight (est.), dose: 64.0 mg/kg/injection, schedule: Q07DX005 (ip), vehicle: water) is 19 % of control.

Consider `O=C(CCl)NC(Cc1ccc(N(CCCl)CCCl)cc1)C(=O)O` (centres undefined), for which the T/C by setting is: (endpoint: median tumor weight (est.), dose: 2.0 mg/kg/injection, schedule: Q01DX001 (ip), vehicle: Klucel (hydroxypropylcellulose) (HPC)) 93 % of control; (endpoint: median tumor weight (est.), dose: 4.0 mg/kg/injection, schedule: Q01DX001 (ip), vehicle: Klucel (hydroxypropylcellulose) (HPC)) 54 % of control; (endpoint: median tumor weight (est.), dose: 8.0 mg/kg/injection, schedule: Q01DX001 (ip), vehicle: Klucel (hydroxypropylcellulose) (HPC)) 75 % of control and 82 % of control; (endpoint: median tumor weight (est.), dose: 16.0 mg/kg/injection, schedule: Q01DX001 (ip), vehicle: Klucel (hydroxypropylcellulose) (HPC)) 48 % of control and 60 % of control; (endpoint: median tumor weight (est.), dose: 32.0 mg/kg/injection, schedule: Q01DX001 (ip), vehicle: Klucel (hydroxypropylcellulose) (HPC)) 60 % of control and 62 % of control; (endpoint: median tumor weight (est.), dose: 64.0 mg/kg/injection, schedule: Q01DX001 (ip), vehicle: Klucel (hydroxypropylcellulose) (HPC)) 19 % of control and 43 % of control.

Take `ClCc1ccc2ccccc2n1`: the T/C runs as follows: under setting [4], 69 % of control; under setting [5], 54 % of control; under setting [6], 76 % of control.

Turning to `CCCCCCCC(=O)OCC(=O)[C@]1(O)Cc2c(O)c3c(c(O)c2[C@@H](OC2CC(N)C(O)C(C)O2)C1)C(=O)c1c(OC)cccc1C3=O` (some centres undefined), the T/C is 62 % of control (endpoint: mean tumor weight, dose: 1.0 mg/kg/injection, schedule: Q07DX006 (ip), vehicle: saline); 19 % of control (endpoint: mean tumor weight, dose: 2.0 mg/kg/injection, schedule: Q07DX006 (ip), vehicle: saline); 64 % of control (endpoint: median tumor weight (est.), dose: 1.0 mg/kg/injection, schedule: Q07DX005 (ip), vehicle: saline); 64 % of control under setting [1]; 66 % of control under setting [2]; 11 % of control under setting [3].

With `c1cc(OCC2CO2)ccc1OCC1CO1` (centres undefined), the T/C is, setting by setting: (endpoint: median tumor weight change, dose: 125.0 mg/kg/injection, schedule: Q01DX001 (ip), vehicle: Klucel (hydroxypropylcellulose) (HPC)) 92 % of control; (endpoint: median tumor weight change, dose: 250.0 mg/kg/injection, schedule: Q01DX001 (ip), vehicle: Klucel (hydroxypropylcellulose) (HPC)) 113 % of control.

For the compound `c1ccc([Te][Te]c2ccccc2)cc1`, the T/C was 97 % of control (endpoint: median tumor weight change, dose: 75.0 mg/kg/injection, schedule: Q01DX001 (ip), vehicle: Klucel (hydroxypropylcellulose) (HPC)); 48 % of control (endpoint: median tumor weight change, dose: 150.0 mg/kg/injection, schedule: Q01DX001 (ip), vehicle: Klucel (hydroxypropylcellulose) (HPC)); 34 % of control (endpoint: median tumor weight change, dose: 300.0 mg/kg/injection, schedule: Q01DX001 (ip), vehicle: Klucel (hydroxypropylcellulose) (HPC)).

For `O=C(Nc1cccc(Cl)c1)ON1C(=O)C2C(C1=O)C1(Cl)C(Cl)C(Cl)C2(Cl)C1(Cl)Cl` (centres undefined), the T/C by setting is: under setting [4], 112 % of control; under setting [5], 112 % of control; under setting [6], 95 % of control.

For the compound `O=S(=O)(O)O.[NH-]C1CCCCC1[NH-].[Pt+2]` (centres undefined), the T/C is, setting by setting: (endpoint: mean tumor weight, dose: 0.63 mg/kg/injection, schedule: Q07DX006 (ip), vehicle: water) 54 % of control; (endpoint: mean tumor weight, dose: 1.25 mg/kg/injection, schedule: Q07DX006 (ip), vehicle: water) 44 % of control; (endpoint: mean tumor weight, dose: 2.5 mg/kg/injection, schedule: Q07DX006 (ip), vehicle: water) 4 % of control; (endpoint: mean tumor weight, dose: 5.0 mg/kg/injection, schedule: Q07DX006 (ip), vehicle: water) 1 % of control; (endpoint: median tumor weight (est.), dose: 0.63 mg/kg/injection, schedule: Q07DX005 (ip), vehicle: dextrose) 81 % of control; (endpoint: median tumor weight (est.), dose: 0.63 mg/kg/injection, schedule: Q07DX005 (ip), vehicle: water) 74 % of control. Besides, the T/C is, setting by setting: (endpoint: median tumor weight (est.), dose: 1.25 mg/kg/injection, schedule: Q07DX005 (ip), vehicle: dextrose) 41 % of control; (endpoint: median tumor weight (est.), dose: 1.25 mg/kg/injection, schedule: Q07DX005 (ip), vehicle: water) 55 % of control; (endpoint: median tumor weight (est.), dose: 2.5 mg/kg/injection, schedule: Q07DX005 (ip), vehicle: dextrose) 83 % of control; (endpoint: median tumor weight (est.), dose: 2.5 mg/kg/injection, schedule: Q07DX005 (ip), vehicle: water) 41 % of control; (endpoint: median tumor weight (est.), dose: 5.0 mg/kg/injection, schedule: Q07DX005 (ip), vehicle: dextrose) 33 % of control; (endpoint: median tumor weight (est.), dose: 5.0 mg/kg/injection, schedule: Q07DX005 (ip), vehicle: water) 3 % of control.

As for `C=C(C)[C@H]1CN[C@H](C(=O)O)[C@H]1CC(=O)O`, the T/C (endpoint: median tumor weight change, dose: 3.12 mg/kg/injection, schedule: Q01DX001 (ip), vehicle: saline) was 99 % of control; the T/C (endpoint: median tumor weight change, dose: 6.25 mg/kg/injection, schedule: Q01DX001 (ip), vehicle: saline) was 77 % of control; the T/C (endpoint: median tumor weight change, dose: 12.5 mg/kg/injection, schedule: Q01DX001 (ip), vehicle: saline) was 77 % of control; the T/C (endpoint: median tumor weight change, dose: 25.0 mg/kg/injection, schedule: Q01DX001 (ip), vehicle: saline) is 73 % of control.

Turning to `O=C(C/C(=N\C(=S)Nc1cc(C(F)(F)F)ccc1Cl)NO)N1CCCC1`, the T/C was 76 % of control under setting [4]; 83 % of control and 90 % of control under setting [5].
